# According to US11897851B2, “Heterocyclic GLP-1 agonists” (Gasherbrum Bio, Inc., priority 2021, dated 2024):
# Target: T1, GLP-1 Receptor (Homo sapiens, UniProt P43220)
# T1 construct: host or cells: HEK293/GLP1R/CRE-LUC (HEK293/CRE-Luc stably expressing the GLP-1 receptor)
# Test: GLP-1R agonist cAMP stimulation assay (HEK293/GLP1R/CRE-LUC cells, Cisbio cAMP dynamic 2 kit);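 note: compounds tested in half-log serial dilution, cAMP detected with cAMP-d2 and anti-cAMP cryptate antibody reagents after 1 h at room temperature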
# Type: cell-based
# Conditions: HEK293/CRE-Luc cell line stably expressing the GLP-1 Receptor; 1000 cells/well; 30 min at 37° C.; 0.5 mM IBMX, 0.1% BSA; read-out: GLP1R cAMP Stimulation DR: EC50
# T1 sequence (P43220 24-463, species assumed): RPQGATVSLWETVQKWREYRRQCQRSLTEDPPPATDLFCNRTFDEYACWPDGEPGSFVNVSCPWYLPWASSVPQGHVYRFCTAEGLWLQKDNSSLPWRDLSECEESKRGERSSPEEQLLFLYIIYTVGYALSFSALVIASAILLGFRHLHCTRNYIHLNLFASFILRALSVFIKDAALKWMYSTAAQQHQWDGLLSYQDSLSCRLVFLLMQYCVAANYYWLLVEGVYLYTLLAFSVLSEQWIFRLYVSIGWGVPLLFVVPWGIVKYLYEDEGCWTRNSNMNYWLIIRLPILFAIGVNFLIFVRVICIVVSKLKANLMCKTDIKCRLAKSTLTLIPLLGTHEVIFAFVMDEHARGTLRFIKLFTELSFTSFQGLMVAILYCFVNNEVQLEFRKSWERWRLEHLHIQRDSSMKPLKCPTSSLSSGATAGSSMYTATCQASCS
row,Structure (SMILES),EC50
1,"CC1(c2ccc(Cl)cc2F)Oc2cccc(C3CCN(Cc4ncc(/C=C/C(=O)O)n4CC4CN(S(C)(=O)=O)C4)CC3)c2O1 (stereo not drawn) [Compound 174, (E)-3-(2-((4-(2-(4-chloro-2-fluorophenyl)-2-methylbenzo[d][1,3]dioxol-4-yl)piperidin-1-yl)methyl)-1-((1-(methylsulfonyl)azetidin-3-yl)methyl)-1H-imidazol-5-yl)acrylic acid]",6.4 nM
2,"CC1(c2ccc(Cl)cc2F)Oc2cccc(C3CCN(Cc4ncc(/C=C/C(=O)O)n4CC4CC(O)C4)CC3)c2O1 (stereo not drawn) [Compound 177, (E)-3-(2-((4-(2-(4-chloro-2-fluorophenyl)-2-methylbenzo[d][1,3]dioxol-4-yl)piperidin-1-yl)methyl)-1-((3-hydroxycyclobutyl)methyl)-1H-imidazol-5-yl)acrylic acid]",0.18 nM
3,"CC1(c2ccc(Cl)cc2F)Oc2cccc(C3CCN(Cc4ncc(/C=C/C(=O)O)n4C4CC(O)C4)CC3)c2O1 (stereo not drawn) [Compound 178, (E)-3-(2-((4-(2-(4-chloro-2-fluorophenyl)-2-methylbenzo[d][1,3]dioxol-4-yl)piperidin-1-yl)methyl)-1-(3-hydroxycyclobutyl)-1H-imidazol-5-yl)acrylic acid]",1.2 nM
4,"CC1(c2ccc(Cl)cc2F)Oc2cccc(C3CCN(Cc4ncc(/C=C/C(=O)O)n4Cc4ccno4)CC3)c2O1 (stereo not drawn) [Compound 181, (E)-3-(2-((4-(2-(4-chloro-2-fluorophenyl)-2-methylbenzo[d][1,3]dioxol-4-yl)piperidin-1-yl)methyl)-1-(isoxazol-5-ylmethyl)-1H-imidazol-5-yl)acrylic acid]",4.1 nM
5,"CC1(c2ccc(Cl)cc2F)Oc2cccc(C3CCN(Cc4nc(/C=C/C(=O)O)cn4Cc4ccno4)CC3)c2O1 (stereo not drawn) [Compound 182, (E)-3-(2-((4-(2-(4-chloro-2-fluorophenyl)-2-methylbenzo[d][1,3]dioxol-4-yl)piperidin-1-yl)methyl)-1-(isoxazol-5-ylmethyl)-1H-imidazol-4-yl)acrylic acid]",93 nM
6,"CCC(O)Cn1c(/C=C/C(=O)O)cnc1CN1CCC(c2cccc3c2OC(C)(c2ccc(Cl)cc2F)O3)CC1 (stereo not drawn) [Compound 185, (E)-3-(2-((4-(2-(4-chloro-2-fluorophenyl)-2-methylbenzo[d][1,3]dioxol-4-yl)piperidin-1-yl)methyl)-1-(2-hydroxybutyl)-1H-imidazol-5-yl)acrylic acid]",20 nM
7,"O=C(O)/C=C/c1cnc(CN2CCC(c3cccc4c3OC[C@@H](c3ccc(Cl)cc3)O4)CC2)n1Cc1ccno1 [Compound 187a, (R,E)-3-(2-((4-(2-(4-chlorophenyl)-2,3-dihydrobenzo [b][1,4]dioxin-5-yl)piperidin-1-yl)methyl)-1-(isoxazol-5-ylmethyl)-1H-imidazol-5-yl)acrylic acid]",> 1000 nM
8,"CCc1ncsc1Cn1c(/C=C/C(=O)O)cnc1CN1CCC(c2cccc3c2OC(C)(c2ccc(Cl)cc2F)O3)CC1 (stereo not drawn) [Compound 188, (E)-3-(2-((4-(2-(4-chloro-2-fluorophenyl)-2-methylbenzo[d][1,3]dioxol-4-yl)piperidin-1-yl)methyl)-1-((4-ethylthiazol-5-yl)methyl)-1H-imidazol-5-yl)acrylic acid]",0.22 nM

# More lines, in order of falling EC50, values ahead:
row,EC50,Structure (SMILES)
1,0.41 nM,"O=C(O)/C=C/c1cnc(CN2CCC(c3cccc4c3OC[C@@H](c3ccc(Cl)cc3)O4)CC2)n1Cc1ncco1 [Compound 186a, (R,E)-3-(2-((4-(2-(4-chlorophenyl)-2,3-dihydrobenzo [b][1,4]dioxin-5-yl)piperidin-1-yl)methyl)-1-(oxazol-2-ylmethyl)-1H-imidazol-5-yl)acrylic acid]"
2,0.33 nM,"CC1(c2ccc(Cl)cc2F)Oc2cccc(C3CCN(Cc4ncc(/C=C/C(=O)O)n4CCC4CC4)CC3)c2O1 (stereo not drawn) [Compound 191, (E)-3-(2-((4-(2-(4-chloro-2-fluorophenyl)-2-methylbenzo[d][1,3]dioxol-4-yl)piperidin-1-yl)methyl)-1-(2-cyclopropylethyl)-1H-imidazol-5-yl)acrylic acid]"
3,0.24 nM,"CCc1ncoc1Cn1c(/C=C/C(=O)O)cnc1CN1CCC(c2cccc3c2OC(C)(c2ccc(Cl)cc2F)O3)CC1 (stereo not drawn) [Compound 184, (E)-3-(2-((4-(2-(4-chloro-2-fluorophenyl)-2-methylbenzo[d][1,3]dioxol-4-yl)piperidin-1-yl)methyl)-1-((4-ethyloxazol-5-yl)methyl)-1H-imidazol-5-yl)acrylic acid]"
4,0.058 nM,"CN(CCn1c(/C=C/C(=O)O)cnc1CN1CCC(c2cccc3c2OC(C)(c2ccc(Cl)cc2F)O3)CC1)S(C)(=O)=O (stereo not drawn) [Compound 176, (E)-3-(2-((4-(2-(4-chloro-2-fluorophenyl)-2-methylbenzo[d][1,3]dioxol-4-yl)piperidin-1-yl)methyl)-1-(2-(N-methylmethylsulfonamido)ethyl)-1H-imidazol-5-yl)acrylic acid]"
5,0.047 nM,"CC(=O)N(C)CCn1c(/C=C/C(=O)O)cnc1CN1CCC(c2cccc3c2OC(C)(c2ccc(Cl)cc2F)O3)CC1 (stereo not drawn) [Compound 175, (E)-3-(2-((4-(2-(4-chloro-2-fluorophenyl)-2-methylbenzo[d][1,3]dioxol-4-yl)piperidin-1-yl)methyl)-1-(2-(N-methylacetamido)ethyl)-1H-imidazol-5-yl)acrylic acid]"
6,0.036 nM,"CC1(c2ccc(Cl)cc2F)Oc2cccc(N3CCN(Cc4ncc(/C=C/C(=O)O)n4C[C@@H]4CCO4)CC3)c2O1 (stereo partly drawn) [Compound 179, (E)-3-(2-((4-(2-(4-chloro-2-fluorophenyl)-2-methylbenzo[d][1,3]dioxol-4-yl)piperazin-1-yl)methyl)-1-(((S)-oxetan-2-yl)methyl)-1H-imidazol-5-yl)acrylic acid]"
7,0.026 nM,"C[C@H]1CN(c2cccc3c2OC(C)(c2ccc(Cl)cc2F)O3)CCN1Cc1ncc(/C=C/C(=O)O)n1C[C@@H]1CCO1 (stereo partly drawn) [Compound 180, (E)-3-(2-(((2S)-4-(2-(4-chloro-2-fluorophenyl)-2-methylbenzo [d][1,3]dioxol-4-yl)-2-methylpiperazin-1-yl)methyl)-1-(((S)-oxetan-2-yl)methyl)-1H-imidazol-5-yl)acrylic acid]"
8,0.022 nM,"Cc1ncsc1Cn1c(/C=C/C(=O)O)cnc1CN1CCC(c2cccc3c2OC(C)(c2ccc(Cl)cc2F)O3)CC1 (stereo not drawn) [Compound 189, (E)-3-(2-((4-(2-(4-chloro-2-fluorophenyl)-2-methylbenzo[d][1,3]dioxol-4-yl)piperidin-1-yl)methyl)-1-((4-methylthiazol-5-yl)methyl)-1H-imidazol-5-yl)acrylic acid]"
9,0.015 nM,"CC1(c2ccc(Cl)cc2F)Oc2cccc(C3CCN(Cc4ncc(/C=C/C(=O)O)n4Cc4ncco4)CC3)c2O1 (stereo not drawn) [Compound 183, (E)-3-(2-((4-(2-(4-chloro-2-fluorophenyl)-2-methylbenzo[d][1,3]dioxol-4-yl)piperidin-1-yl)methyl)-1-(oxazol-2-ylmethyl)-1H-imidazol-5-yl)acrylic acid]"
10,0.012 nM,"Cc1ncoc1Cn1c(/C=C/C(=O)O)cnc1CN1CCC(c2cccc3c2OC(C)(c2ccc(Cl)cc2F)O3)CC1 (stereo not drawn) [Compound 190, (E)-3-(2-((4-(2-(4-chloro-2-fluorophenyl)-2-methylbenzo[d][1,3]dioxol-4-yl)piperidin-1-yl)methyl)-1-((4-methyloxazol-5-yl)methyl)-1H-imidazol-5-yl)acrylic acid]"
